According to patent US9458172B2, “Pyridinyl and pyrimidinyl sulfoxide and sulfone derivatives” (priority 2012, dated 2016):
pIC50: −log10 of the molar value. Like-named read-outs stand apart in the source and are kept apart here.

How the values were obtained:
NAMPT = NAMPT (Homo sapiens (Human), UniProt P43490); assay: Biochemical Inhibition Assay (NAMPT enzymatic reaction, NMN quantified by mass spectrometry); details: 33 nM recombinant His-tagged NAMPT, 1 μM NAM, 30 min at rt
Procedure, shortened: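 His-tagged human NAMPT from E. coli preincubated 15 min at rt with compound in 50 mM Hepes pH 7.5, 50 mM NaCl, 5 mM MgCl2, 1 mM THP, then reacted 30 min at rt with 1 μM NAM, […] PRPP, 2.5 mM ATP. NMN quantified by RapidFire mass spectrometry, normalized to L-Cystathionine, background subtracted.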

A2780 cells = assay: In-Vitro Cell Proliferation Assay (SRB)
[1] = read-out: Cell Proliferation (IC50), A2780 cells, 72 h, sulforhodamine B
[2] = Homo sapiens, A2780, 72 h, read-out: Cell Proliferation (IC50)
[3] = Homo sapiens, A2780, 72 h, read-out: Cell Proliferation (IC50), A2780 cells, 72 h, sulforhodamine B

Chain of NAMPT (P43490 whole entry): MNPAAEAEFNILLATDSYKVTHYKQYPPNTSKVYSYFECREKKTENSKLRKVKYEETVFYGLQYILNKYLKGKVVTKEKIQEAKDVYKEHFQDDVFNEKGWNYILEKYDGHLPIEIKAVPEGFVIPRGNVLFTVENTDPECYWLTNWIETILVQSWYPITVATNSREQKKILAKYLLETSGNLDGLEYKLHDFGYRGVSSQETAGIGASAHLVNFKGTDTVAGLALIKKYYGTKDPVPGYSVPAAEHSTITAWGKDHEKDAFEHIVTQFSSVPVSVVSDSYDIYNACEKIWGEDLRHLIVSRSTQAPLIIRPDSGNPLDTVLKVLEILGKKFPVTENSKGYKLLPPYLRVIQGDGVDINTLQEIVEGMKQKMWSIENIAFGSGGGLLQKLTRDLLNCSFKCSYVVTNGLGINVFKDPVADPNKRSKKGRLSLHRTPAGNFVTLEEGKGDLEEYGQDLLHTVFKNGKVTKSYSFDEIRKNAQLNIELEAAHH

Row | Compound | pIC50 (NAMPT) | pIC50 (A2780 cells; [1]) | pIC50 (A2780 cells; [2]) | pIC50 (A2780 cells; [3])
1 | Cn1cc(S(=O)(=O)c2ccc(CNC(=O)c3cc4ccncc4s3)nc2)cn1 [Example 40, Thieno[2,3-c]pyridine-2-carboxylic acid [5-(1-methyl-1H-pyrazole-4-sulfonyl)-pyridin-2-ylmethyl]-amide] | 6.87 |  | 5.70 | 
2 | O=C(NCc1ccc([S+]([O-])c2cccc(OC(F)(F)F)c2)cn1)N1Cc2ccncc2C1 (racemic) [Example 89, 1,3-Dihydro-pyrrolo[3,4-c]pyridine-2-carboxylic acid [5-(3-trifluoromethoxy-benzenesulfinyl)-pyridin-2-ylmethyl]-amide (racemic)] | 8.10 |  | 7.73 | 
3 | O=C(NCc1ccc(S(=O)(=O)c2ccc(N3CCOCC3)cc2)cn1)c1cnc2nccn2c1 [Example 38, Imidazo[1,2-a]pyrimidine-6-carboxylic acid [5-(4-morpholin-4-yl-benzenesulfonyl)-pyridin-2-ylmethyl]-amide] | 8.68 |  |  | 8.00
4 | O=C(NCc1ccc(S(=O)(=O)c2ccc(N3CCOCC3)nc2)cn1)c1cc2ccncc2s1 [Example 54, Thieno[2,3-c]pyridine-2-carboxylic acid [5-(6-morpholin-4-yl-pyridine-3-sulfonyl)-pyridin-2-ylmethyl]-amide] | 8.77 |  | 9.30 | 
5 | CCS(=O)(=O)c1cccc(S(=O)(=O)c2ccc(CNC(=O)c3cc4ccncc4o3)nc2)c1 [Example 109, N-[[5-(3-ethylsulfonylphenyl)sulfonyl-2-pyridyl]methyl]furo[2,3-c]pyridine-2-carboxamide] | 8.17 |  | 7.82 | 
6 | O=C(NCc1ccc(S(=O)(=O)c2ccc(N3CCOCC3)cc2)cn1)c1ccc2nccn2c1 [Example 30, Imidazo[1,2-a]pyridine-6-carboxylic acid (5-(4-morpholin-4-yl-benzenesulfonyl)-pyridin-2-ylmethyl]-amide] | 8.14 |  |  | 8.80
7 | O=C(NCc1ccc(S(=O)(=O)c2ccc(N3CCOCC3)cc2)cn1)c1cc2ccncc2o1 [Example 37, Furo[2,3-c]pyridine-2-carboxylic acid [5-(4-morpholin-4-yl-benzenesulfonyl)-pyridin-2-ylmethyl]-amide] | 8.46 |  | 9.00 | 
8 | O=C(NCc1ccc(S(=O)(=O)c2ccc(N3CCOCC3)nc2)cn1)c1cc2ccncc2o1 [Example 52, Furo[2,3-c]pyridine-2-carboxylic acid [5-(6-morpholin-4-yl-pyridine-3-sulfonyl)-pyridin-2-ylmethyl]-amide] | 8.70 |  |  | 9.30
9 | O=C(NCc1ccc(S(=O)(=O)C2CCNCC2)cn1)c1cc2ccncc2o1 [Example 26, Furo[2,3-c]pyridine-2-carboxylic acid [5-(piperidine-4-sulfonyl)-pyridin-2-ylmethyl]-amide] | 6.69 |  | 5.70 | 
10 | Nc1ccc(S(=O)(=O)c2ccc(CNC(=O)c3cc4ccncc4o3)nc2)cn1 [Example 110, N-[[5-[(6-amino-3-pyridyl)sulfonyl]-2-pyridyl]methyl]furo[2,3-c]pyridine-2-carboxamide] | 7.88 |  | 7.59 | 
11 | O=C(NCc1ccc(S(=O)(=O)c2cccc(C(F)(F)F)c2)cn1)c1ccc2nccn2c1 [Example 10, Imidazo[1,2-a]pyridine-6-carboxylic acid [5-(3-trifluoromethyl-benzenesulfonyl)-pyridin-2-ylmethyl]-amide] | 7.90 |  |  | 8.08
12 | O=C(NCc1ccc(S(=O)(=O)C2CCOCC2)cn1)c1cc2ccncc2s1 [Example 53, Thieno[2,3-c]pyridine-2-carboxylic acid [5-(tetrahydro-pyran-4-sulfonyl)-pyridin-2-ylmethyl]-amide] | 7.04 |  | 6.26 | 
13 | O=C(NCc1ccc(S(=O)(=O)C2CCN(C3COC3)CC2)cn1)c1cc2ccncc2s1 [Example 56, Thieno[2,3-c]pyridine-2-carboxylic acid [5-(1-oxetan-3-yl-piperidine-4-sulfonyl)-pyridin-2-ylmethyl]-amide] | 7.59 |  | 7.82 | 
14 | O=C(NCc1ncc(S(=O)(=O)c2ccccc2)cn1)c1cnc2[nH]ncc2c1 [Example 6, 1H-Pyrazolo[3,4-b]pyridine-5-carboxylic acid (5-benzenesulfonyl-pyrimidin-2-ylmethyl)-amide] | 6.97 |  |  | 5.70

Now from value to compound:

Row | pIC50 (NAMPT) | pIC50 (A2780 cells; [1]) | pIC50 (A2780 cells; [2]) | pIC50 (A2780 cells; [3]) | Compound
15 | 6.20 | 5.70 |  |  | O=C(NCc1ccc([S+]([O-])c2cc(F)cc(F)c2)cn1)N1Cc2ccncc2C1 (single isomer, unassigned; enantiomer 1) [Example 159, N-[[5-(3,5-difluorophenyl)sulfinyl-2-pyridyl]methyl]-1,3-dihydropyrrolo[3,4-c]pyridine-2-carboxamide (enantiomer 1)]
16 | 7.21 |  |  | 7.29 | CCCn1cc(S(=O)(=O)c2ccc(CNC(=O)c3cc4cnccc4[nH]3)nc2)cn1 [Example 171, N-[[5-(1-propylpyrazol-4-yl)sulfonyl-2-pyridyl]methyl]-1H-pyrrolo[3,2-c]pyridine-2-carboxamide]
17 | 7.60 |  | 7.39 |  | O=C(NCc1ncc(S(=O)(=O)c2cc(F)cc(F)c2)cn1)c1cc2ccncc2o1 [Example 182, N-[[5-(3,5-difluorophenyl)sulfonyl-pyrimidin-2-yl]methyl]furo[2,3-c]pyridine-2-carboxamide]
18 | 7.74 | 7.46 |  |  | CN1CCN(c2ccc(S(=O)(=O)c3ccc(CNC(=O)c4cc5ccncc5o4)nc3)cn2)CC1 [Example 135, N-[[5-[[6-(4-methylpiperazin-1-yl)-3-pyridyl]sulfonyl]-2-pyridyl]methyl]furo[2,3-c]pyridine-2-carboxamide]
19 | 8.52 |  |  | 7.00 | O=C(NCc1ccc(S(=O)(=O)C2CCN(CC(F)(F)F)CC2)cn1)c1cnc2nccn2c1 [Example 111, N-[[5-[[1-(2,2,2-trifluoroethyl)-4-piperidyl]sulfonyl]-2-pyridyl]methyl]imidazo[1,2-a]pyrimidine-6-carboxamide]
20 | 8.17 |  | 8.22 |  | CCN(C)c1ncc(S(=O)(=O)c2ccc(CNC(=O)N3Cc4ccncc4C3)nc2)s1 [Example 147, N-[[5-[2-[ethyl(methyl)amino]thiazol-5-yl]sulfonyl-2-pyridyl]methyl]-1,3-dihydropyrrolo[3,4-c]pyridine-2-carboxamide]
21 | 6.99 |  | 7.33 |  | COCC(=O)N1CCC(S(=O)(=O)c2ccc(CNC(=O)c3cc4ccncc4o3)nc2)CC1 [Example 122, N-[[5-[[1-(2-methoxyacetyl)-4-piperidyl]sulfonyl]-2-pyridyl]methyl]furo[2,3-c]pyridine-2-carboxamide]
22 | 7.13 |  | 7.05 |  | N#Cc1cccc(S(=O)(=O)c2ccc(CNC(=O)c3ccc4nccn4c3)nc2)c1 [Example 155, N-[[5-(3-cyanophenyl)sulfonyl-2-pyridyl]methyl]imidazo[1,2-a]pyridine-6-carboxamide]
23 | 7.25 |  | 7.09 |  | CS(=O)(=O)c1cccc(S(=O)(=O)c2ccc(CNC(=O)c3ccc4nccn4c3)nc2)c1 [Example 137, N-[[5-(3-methylsulfonylphenyl)sulfonyl-2-pyridyl]methyl]imidazo[1,2-a]pyridine-6-carboxamide]
24 | 6.90 |  |  | 6.04 | O=C(NCc1ccc(S(=O)(=O)c2ccccc2)cn1)c1cc2ccncc2s1 [Example 186, N-[[5-(benzenesulfonyl)-2-pyridyl]methyl]thieno[2,3-c]pyridine-2-carboxamide]
